Tested on: RS11846 B cell chemotaxis to 7a,25-OHC, calcein fluorescence
Assay: blockade of oxysterol-directed cell migration via EBI2 – chemotaxis, 7a,25-OHC, calcein fluorescence, dose response (AID 743410)

Q: How did the IC50 turn out when O=C(/C=C/c1ccc(Br)cc1)N1CCN(Cc2ccc(Cl)cc2)CC1 was run?
A: 6.24 nM
